Assays:
gp46 mRNA in pHSC [1] = test: In vitro (pHSC) gp46 knockdown by siRNA liposome formulations, qRT-PCR; assay type: cell-based; conditions: @ 20 nM
Experimental: In Vitro (pHSC, Gp46 KD @ 20 nM) Efficacy
PHSCs in 96-well plate were incubated with formulation that composed of either ionizable lipid formulation C104, ionizable lipid formulation Tu104, or combination formulations with different ratio of ionizable lipids (C104:Tu104). After 30 minutes, medium was replaced with fresh growth medium. Forty eight hours later, cells were lysed and gp46 and GAPDH mRNA levels measured by quantitative RT-PCR (TaqMan®) assay, and gp46 levels were normalized to GAPDH levels. Normalized gp46 levels were expressed as percent of mock control cells. Error bars indicate standard deviations (n=3). Results are depicted in FIG. 1.
Transfection method is same for LX-2 and pHSCs. The liposome formulations or lipoplex formulations of the description were mixed with growth medium at desired concentrations. 100 μl of the mixture was added to the cells in 96-well plate and cells were incubated for 30 min at 37° C. in the incubator with 5% CO2. After 30 min, medium was replaced with fresh growth medium. After 48 h of transfection, cells were processed using Cell-to-Ct lysis reagents (Applied Biosystems) according to the manufacturer's instructions.
HSP47 and GAPDH TaqMan®® assays and One-Step RT-PCR master mix were purchased from Applied Biosystems. Each PCR reaction contained the following composition: One-step RT-PCR mix 5 μl, TaqMan® RT enzyme mix 0.25 μl, TaqMan® gene expression assay probe (HSP47) 0.25 μl, TaqMan® gene expression assay probe (GAPDH) 0.5 μl, RNase free water 3.25 μl, Cell lysate 0.75 μl, Total volume of 10 μl. GAPDH was used as endogenous control for the relative quantification of HSP47 mRNA levels. Quantitative RT-PCR was performed in ViiA 7 realtime PCR system (Applied Biosciences). All values were normalized to the average HSP47 expression of the mock transfected cells and expressed as percentage of HSP47 expression compared to mock.

gp46 mRNA in pHSC [2] = test: as above; assay type: cell-based
gp46 mRNA = test: In vivo (DMNQ) efficacy, short-term liver damage model, liver gp46 mRNA; set-up: species or system male Sprague-Dawley rats; conditions: single IV dose, liver 24 h after
Experimental: In vivo activity of target formulation was evaluated in the short-term liver damage model (referred to as the Quick Model or DMNQ). In this model, the short-term liver damage induced by treatment with a hepatotoxic agent such as dimethylnitrosamine (DMN) is accompanied by the elevation of gp46 mRNA levels. To induce these changes, male Sprague-Dawley rats were injected intraperitoneally with DMN on six consecutive days. At the end of the DMN treatment period, the animals were randomized to groups based upon individual animal body weight. Formulations was administered as a single IV dose, one hour after the last injection of DMN. Twenty four hours after, liver lobes were excised and both gp46 and MRPL19 mRNA levels were determined by quantitative RT-PCR (TaqMan) assay. mRNA levels for gp46 were normalized to MRPL19 levels. Results are depicted in FIG. 4. Several combinations of ionizable:cationic lipids achieved 50% reduction in gene expression for a single, 0.5 mg per kg of animal body weight, dose of encapsulated siRNA.

HepG2 cells = test: HepG2 cytotoxicity assay (CellTiter-Glo); assay type: cell-based, human; conditions: HepG2 @ 200 nM, 48 h post formulation addition, n=3
Experimental: In Vitro Toxicology Data, In Vitro Cytotoxicity (HepG2 @ 200 nM)
HepG2 cells, an adherent cell line derived from human hepatocellular carcinoma, was cultured in MEM/EBSS (Hyclone, Logan, Utah, Cat# SH30024.01) supplemented with 10% FBS (Hyclone, Logan, Utah Cat# SH30910). HepG2 cells were seeded in 96-well Optilux black plates (BD Falcon, Cat # BD353220) at 5000 cells/well overnight. Formulations were added to each well to final indicated siRNA concentration (n=3). At 48 h post formulation addition, cell viability was determined using CellTiter-Glo Luminescent Cell Viability Assay Kit (Promega, Cat #G7572) following manufacture's instruction. Chemiluminescent signal were measured on Clarity Luminescence Microplate Reader (502-Biotek, Winooski, Vt.). Viability was calculated based on % of chemiluminescent signal in formulation treated well normalized against mock treated wells.

Row | Compound | in vitro (pHSC) % KD (gp46 mRNA in pHSC [1]) [% @ 20 nM] | in vitro (pHSC) % KD (gp46 mRNA in pHSC [2]; @ 50 nM) [% @ 50 nM] | also measured
1 | CCCCCCCC/C=C\CCCCCCCC(=O)OCCN(CCOC(=O)CCCCCCC/C=C\CCCCCCCC)C(=O)CCCCN(C)C [C104-DO, (Z)-((5-(dimethylamino)pentanoyl)azanediyl)bis(ethane-2,1-diyl) dioleate] | 32 | – | –
2 | CCCCCCCCCCCCCC(=O)OCCN(CCOC(=O)CCCCCCCCCCCCC)C(=O)OCCCN(C)C [CB104, (((3-(dimethylamino)propoxy)carbonyl)azanediyl)bis(ethane-2,1-diyl) ditetradecanoate] | 42 | – | –
3 | CCCCCCCCCCCCCC(=O)OCCN(CCOC(=O)CCCCCCCCCCCCC)C(=O)COC(=O)CCCN(C)C [HEDC- M1, ((2-((4-(dimethylamino)butanoyl)oxy)acetyl)azanediyl)bis(ethane-2,1-diyl) ditetradecanoate] | 53 | – | –
4 | CCCCCCCC/C=C\CCCCCCCC(=O)OCCN(CCOC(=O)CCCCCCC/C=C\CCCCCCCC)C(=O)CN(C)C [INT-4, (Z)-((2-(dimethylamino)acetyl)azanediyl)bis(ethane-2,1-diyl) dioleate] | – | 70 | –
5 | CCCCCCCCCCCCCC(=O)OCCN(CCOC(=O)CCCCCCCCCCCCC)C(=O)CCCCN(C)C [Lipid C104, ((5-(dimethylamino)pentanoyl)azanediyl)bis(ethane-2,1-diyl) ditetradecanoate] | 53 | – | in vivo (rat DMNQ) % KD (gp46 mRNA; @ 0.5 mpk): 75% @ 0.5 mpk
6 | CCCCCCCCCCCCCC(=O)OCCN(CCOC(=O)CCCCCCCCCCCCC)C(=O)COCCN(C)C [Lipid O104, ((2-(2-(dimethylamino)ethoxy)acetyl)azanediyl)bis(ethane-2,1-diyl) ditetradecanoate] | 55 | – | –
7 | CCCCCCCCCCCCCC(=O)OCCN(CCOC(=O)CCCCCCCCCCCCC)C(=O)CSCCN(C)C [Lipid S104, ((2-((2-(dimethylamino)ethyl)thio)acetyl)azanediyl)bis(ethane-2,1-diyl) ditetradecanoate] | – | 68 | % viability (HepG2 cells): 52%; in vivo (rat DMNQ) % KD (gp46 mRNA; @ 0.5 mpk): 52% @ 0.5 mpk
8 | CCCCCCCCCCCCCC(=O)OCCN(CCOC(=O)CCCCCCCCCCCCC)C(=O)c1ccc(CN(C)C)s1 [Lipid T104, ((5-((dimethylamino)methyl)thiophene-2-carbonyl)azanediyl)bis(ethane-2,1-diyl) ditetradecanoate] | 58 | – | –
9 | CCCC/C=C/CCCCCCCC(=O)OCCN(CCOC(=O)CCCCCCC/C=C/CCCC)C(=O)CSCCN(C)C [S104-DMO, (9Z,9′Z)-((2-((2-(dimethylamino)ethyl)thio)acetyl)azanediyl)bis(ethane-2,1-diyl) bis(tetradec-9-enoate)] | – | – | in vitro (pHSC) % KD (gp46 mRNA in pHSC [2]; @ 10 nM): 40% @ 10 nM
10 | CCCCCCCC/C=C\CCCCCCCC(=O)OCCN(CCOC(=O)CCCCCCC/C=C\CCCCCCCC)C(=O)CSCCN(C)C [S104-DO, (Z)-((2-((2-(dimethylamino)ethyl)thio)acetyl)azanediyl)bis(ethane-2,1-diyl) dioleate] | 78 | – | in vivo (rat DMNQ) % KD (gp46 mRNA; @ 0.5 mpk): 65% @ 0.5 mpk
11 | CCCCCCCCCCCCCC(=O)OCCN(CCOC(=O)CCCCCCCCCCCCC)C(=O)CS(=O)(=O)CCN(C)C [SO2-S104, ((2-((2-(dimethylamino)ethyl)sulfonyl)acetyl)azanediyl)bis(ethane-2,1-diyl) ditetradecanoate] | 75 | – | in vivo (rat DMNQ) % KD (gp46 mRNA; @ 0.5 mpk): 18% @ 0.5 mpk
12 | CCCCCCCCCCCCCC(=O)OCCN(CCOC(=O)CCCCCCCCCCCCC)C(=O)SCCN(C)C [TU104, ((((2-(dimethylamino)ethyl)thio)carbonyl)azanediyl)bis(ethane-2,1-diyl) ditetradecanoate] | 76 | – | –
13 | CCCCCCCC/C=C\CCCCCCCC(=O)OCCN(CCOC(=O)CCCCCCC/C=C\CCCCCCCC)C(=O)SCCN(C)C [TU104-DO, (Z)-((((2-(dimethylamino)ethyl)thio)carbonyl)azanediyl)bis(ethane-2,1-diyl) dioleate] | 81 | – | in vivo (rat DMNQ) % KD (gp46 mRNA; @ 0.25 mpk): 40% @ 0.25 mpk
14 | CCCCCCCCCCCCCC(=O)OCCN(CCOC(=O)CCCCCCCCCCCCC)C(=O)CN(C)C [i-DC, ((2-(dimethylamino)acetyl)azanediyl)bis(ethane-2,1-diyl) ditetradecanoate] | – | – | in vitro (pHSC) % KD (gp46 mRNA in pHSC [2]; @ 200 nM): 89% @ 200 nM
15 | CCCCCCCC/C=C\CCCCCCCC(=O)OCCN(CCOC(=O)CCCCCCC/C=C\CCCCCCCC)C(=O)CCN(C)C [i-Et- DODC, (Z)-((3-(dimethylamino)propanoyl)azanediyl)bis(ethane-2,1-diyl) dioleate] | – | 43 | –
16 | CCCCCCCCCCCCCC(=O)OCCN(CCOC(=O)CCCCCCCCCCCCC)C(=O)CCN(C)C [i-Et-DC, ((3-(dimethylamino)propanoyl)azanediyl)bis(ethane-2,1-diyl) ditetradecanoate] | – | 65 | –
17 | CCCCCCCC/C=C\CCCCCCCC(=O)OCCCN(CCCOC(=O)CCCCCCC/C=C\CCCCCCCC)C(=O)CN(C)C [i-Pr- DODC, (Z)-((2-(dimethylamino)acetyl)azanediyl)bis(propane-3,1-diyl) dioleate] | – | 60 | –
18 | CCCCCCCCCCCCCC(=O)OCCCN(CCCOC(=O)CCCCCCCCCCCCC)C(=O)CN(C)C [i-Pr-DC, ((2-(dimethylamino)acetyl)azanediyl)bis(propane-3,1-diyl) ditetradecanoate] | – | 53 | –
19 | CCCCCCCCCCCCCC(=O)OCCN(CCOC(=O)CCCCCCCCCCCCC)C(=O)CCCN(C)C [i-Prop- DC, ((4-(dimethylamino)butanoyl)azanediyl)bis(ethane-2,1-diyl) ditetradecanoate] | 54 | 55 | –
20 | CCCCCCCC/C=C\CCCCCCCC(=O)OCCN(CCOC(=O)CCCCCCC/C=C\CCCCCCCC)C(=O)CCCN(C)C [i-Prop- DODC, (Z)-((4-(dimethylamino)butanoyl)azanediyl)bis(ethane-2,1-diyl) dioleate] | 27 | 55 | –
